Assay results reported in US7378427B2, “Processes for preparing 6-alkyl-5-arylsulfonyl-dihydrophenanthridines” (Wyeth, priority 2004, dated 2008).

Assays:
NF-κB = experiment: HAECT-1 NF-κB luciferase reporter assay in Ad5-wt-ER infected cells (IL-1β induced); type: cell-based, human; conditions: Ad5-wt-ER infected HAECT-1 cells
Experimental: Control (no ER infection) cells were processed as above without Ad5-wt-hERα virus infection.
Cells were subsequently washed with 300 μL of Dulbecco's phosphate buffered saline and lysed in 50 μL of Cell Culture Lysis Reagent (Promega). Luciferase was determined on a Wallac Victor^2 Luminometer (Gaithersburg, Md.) using 10 μL of lysate and mixing with 100 μL of Promega Luciferase Assay reagent. Creatine kinase was determined from the rate of increase in A340 following addition of 100 μL of CK assay reagent (Sigma, cat. No 47-10) to the remainder of the cell lysate.
(§1) For IC50 and EC50 calculations, mean IL-6, luciferase or CK values versus log10 of the compound concentration were fitted to a four parameter logistic equation. The IC50/EC50 value, ‘Hill slope’, upper and lower limits of the curve were iteratively estimated.

IL-6 = experiment: HAECT-1 IL-6 expression assay (ELISA) in Ad5-wt-ER infected cells (IL-1β induced); type: cell-based, human; conditions: Ad5-wt-ER infected HAECT-1 cells; for IC50: IL-1β, IL-6 ELISA; for IL-6 Efficacy: relative to the maximal inhibition observed with E2
Experimental: (§2) T-175 flasks of 100% confluent HAECT-1 cells (immortalized human aortic endothelial cells) were washed with 8 mL of HBSS (HEPES buffered saline solution) and infected for four hours with 6 mL of a 1:10 dilution of Ad5-wt-hERα virus (an adenovirus transfection vector that mediates CMV promoter driven expression of human ERα) in phenol red free Endothelial Cell Basal medium (Clonetics, San Diego Calif., Catalog #CC-3129) containing 0.25% bovine serum albumin (EBM-BSA). After four hours, the cells were washed with EBM-BSA and incubated overnight in the same medium. Following overnight incubation, the cells were washed with EBM-BSA and infected for 2 hours with 6 mL of a 1:10 dilution of Ad5-3×(NFκB). Luc virus (Adenovirus luciferase expression vector driven by 3 repeats of the MHC NFκb site 5′ to the thymidine kinase promoter) in EBM-BSA. After two hours, the cells were washed and incubated at 34° C. for 1 hour. The cells were then washed, trypsinized, counted and resuspended in 95% FBS/5% dimethylsulfoxide at a concentration of 4×10^6 cells/mL, frozen as 1 or 5 mL aliquots in cryo-vials and stored at −150° C. Control (no ER infection) cells were processed as above without Ad5-wt-hERα virus infection.
ERα infected HAECT-1 cells or control cells were thawed, diluted 42× in warm EBM-BSA, plated into 96-well plates at 0.1 mL/well and incubated for 4 h at 34° C. Test compounds were added to the cells as 2× stocks in EBM-BSA containing 2 ng/mL IL-1β (R&D Systems) and plates were returned to the incubator (34° C.). After 15-20 h, 100 μL aliquots of media were removed from the cells and assayed for IL-6 content using a BioSource human IL-6 ELISA Kit. Cells were subsequently washed with 300 μL of Dulbecco's phosphate buffered saline and lysed in 50 μL of Cell Culture Lysis Reagent (Promega). Luciferase was determined on a Wallac Victor^2 Luminometer (Gaithersburg, Md.) using 10 μL of lysate and mixing with 100 μL of Promega Luciferase Assay reagent. Creatine kinase was determined from the rate of increase in A340 following addition of 100 μL of CK assay reagent (Sigma, cat. No 47-10) to the remainder of the cell lysate.
as §1

C57BL/6 mice = experiment: Uterine wet weight increase in ovariectomized C57BL/6 mice; type: in vivo; conditions: EE 0.01 mg/kg/day, test compound 10 mg/kg/day, gavage once daily for 5 weeks, compared to vehicle control
Experimental: Ovariectomized C57BL/6 mice (16-20 g) (Taconic) were separated into groups of 8. After 5-7 days of recuperation, the mice were fed a chow diet or an atherogenic diet (15.75% fat, 1.25% cholesterol and 0.5% sodium cholate) (Purina diet #21539). EE or test compound was administered once daily by gavage in a methylcellulose/tween vehicle (0.1 ml per mouse) for 5 weeks. At the end of the experimental period, the liver was collected and uterine wet weight was recorded.

creatine kinase (CK) = experiment: HAECT-1 creatine kinase (CK) expression assay in Ad5-wt-ER infected cells; type: cell-based, human; conditions: relative to the maximal stimulation observed with E2; Ad5-wt-ER infected HAECT-1 cells
Experimental: as §2, with “Luc virus (Adenovirus luciferase expression vector driven by 3 repeats of the MHC NFκb site 5′ to the thymidine kinase promoter) in EBM-BSA. After two hours, the cells were washed and incubated at 34° C. for 1 hour.” left out, “Control (no ER infection) cells were processed as above without Ad5-wt-hERα virus infection.” left out
ERα infected HAECT-1 cells or control cells were thawed, diluted 42× in warm EBM-BSA, plated into 96-well plates at 0.1 mL/well and incubated for 4 h at 34° C. […] Luciferase was determined on a Wallac Victor^2 Luminometer (Gaithersburg, Md.) using 10 μL of lysate and mixing with 100 μL of Promega Luciferase Assay reagent. Creatine kinase was determined from the rate of increase in A340 following addition of 100 μL of CK assay reagent (Sigma, cat. No 47-10) to the remainder of the cell lysate. […]

SMILES | melting point [°C] | IC50 (NF-κB; Homo sapiens, HAECT1, IL-1β, luciferase reporter) [nM] | NF-κB Efficacy (NF-κB; relative to the maximal inhibition observed with E2) [%] | IC50 (IL-6; Homo sapiens, HAECT1) [nM] | IL-6 Efficacy (IL-6) [%] | Uterine Wet Weight Increase, Efficacy (%) (C57BL/6 mice) | Uterine Wet Weight Increase, Fold Increase (C57BL/6 mice) | IC50 (IL-6) [nM] | CK Efficacy (creatine kinase (CK)) [%]
C[C@H]1c2cc(F)ccc2-c2ccccc2N1S(=O)(=O)c1ccc(OS(N)(=O)=O)cc1 [Example 22, 4-{[(6S)-8-Fluoro-6-methylphenanthridin-5(6H)-yl]sulfonyl}phenyl sulfamate] | 165.5 to 167.3 |  |  |  |  |  |  |  | 
C[C@H]1c2cc(F)ccc2-c2ccccc2N1S(=O)(=O)c1ccc(O)cc1 [Example 8, 4-[(S)-8-Fluoro-6-methyl-6H-phenanthridine-5-sulfonyl]-phenol] | 193 | 59 | 99 | 303 | 118 | 0 | 0 |  | 
C#C[C@]1(O)CC[C@H]2[C@@H]3CCc4cc(O)ccc4[C@H]3CC[C@@]21C [EE, reference compound] |  |  |  |  |  | 100 | 5.0 |  | 
C[C@]12CC[C@@H]3c4ccc(O)cc4CC[C@H]3[C@@H]1CC[C@@H]2O [Example E2, 17-β-estradiol, reference compound] |  |  |  |  | 100 |  |  | 1.7 | 100
